From US20090155440A1, “Salt Enhancing Compounds and Use” (GIVAUDAN SA, priority 2005, published 2009)

Legend:
Type in all cases: in vivo
[1] = system: sensory panel; assay: Sensory triangle test in chicken broth, Examples 3a and 3b; conditions: for Kokumi Intensity (0-5): scale 0 to 5, 5 most intensive, reference 2; for Sensory results (compared to 1): chicken broth, Example 3b
Method: (§1) Unless otherwise indicated, all sensory tests are triangle tests and are performed according to the guidelines in “Amtliche Sammlung von Untersuchungsverfahren nach § 35 LMBG (Lebensmittel-und Bedarfsgegenständegesetz)”; L 00.90 7, Untersuchung von Lebensmitteln, Sensorische Prüfverfahren, Dreiecksprüfung (Übernahme der gleichnahmigen Deutschen Norm DIN ISO 4120, Ausgabe Januar 1995), as follows:
The sensory panel is trained to evaluate the taste of aqueous solutions (4 ml each) of the following standard taste compounds by using a triangle test as described in the literature (Wieser and Belitz, Z. Lebensm. Unters. Forsch., 1975,159, 65-72): sucrose (40 mmol/L) for sweet taste; citric acid (5 mmol/L) for sour taste; NaCl (12 mmol/L) for salty taste; caffeine (2 mmol/L) for bitter taste; and monosodium glutamate (MSG; 6 mmol/L) for umami taste. For kokumi taste, a solution of glutathione (10 mmol/L) in diluted chicken broth concentrate (Goumet Bouillon Huhn, Maggi, Singen, Germany; 3 g/100 g bottled water (Evian®)) is prepared and compared to the taste of chicken broth with no glutathione added.
(§2) For recording the taste profiles, samples are prepared as indicated in the examples below. Taste profiles of samples are determined in a triangle test in three different sessions. Panellists refrain from eating or drinking for at least 1 hour prior to the session. At the start of the session and before each trial, the subject rinsed with water and expectorated. The participants receive a set of two blanks and one taste sample. Liquid samples are swirled around in the mouth briefly and expectorated. Solid samples are chewed for 20 seconds and then expectorated. […] Each sample with additive is compared to two reference samples without additives. Kokumi intensity is rated from 0-5 according to a scale from 0 to 5 (with 5 most intensive). The additive is added to a consumable and the sample is homogenised. The samples are presented to the sensory panel directly after homogenisation. The sensory panel included 6-8 trained individuals with exception of example 4, here the panel consists of 10 trained individuals.
Chicken broth is prepared by diluting 3 g of a chicken broth concentrate (Gourmet Bouillon Huhn, Nestle) with 100 ml water. Additives are added as specified in table below in a concentration of 10 mmol/L. The pH-value of all samples is adjusted to 6.5 using formic acid (0.1 mol/L) or sodium hydroxide (0.1 mol/L).
Kokumi intensity is rated according to a scale from 0 to 5 (with 5 most intensive). […] The additive is added to a consumable and the sample is homogenised.
The samples are presented to the sensory panel directly after homogenisation. The sensory panel included 8 trained individuals.
The samples are tested as described above in example 3a.

[2] = system: sensory panel; assay: Sensory test in cream cheese, Example 4; conditions: for Sensory results (compared to 1): versus reference without additives; for Sensory results compared to 2: versus NaCl Reference (2000 ppm)
Method: as §1, §2
Samples are compared by a panel of 10 trained panelists.

[3] = system: sensory panel; assay: Isointensity triangle test, S-substituted peptides in sodium salt solution (30 mmol/L NaCl), Example 1a; conditions: compound 10 mmol/L in aqueous NaCl 30 mmol/L, pH 6.5; reference without additive 30 mmol/L
Method: Unless otherwise indicated, all sensory tests are triangle tests and are performed according to the guidelines in “[…] von […]-und Bedarfsgegenständegesetz)”; L 00.90 7, Untersuchung von Lebensmitteln, Sensorische […] Deutschen Norm DIN ISO 4120, Ausgabe Januar 1995), as follows: The sensory panel is trained to evaluate the taste of aqueous solutions (4 ml each) of the following standard taste compounds by using a triangle test as described in the literature ([…] and Belitz, Z. Lebensm. Unters. Forsch., 1975,159, 65-72): sucrose (40 mmol/L) for sweet taste; citric acid (5 mmol/L) for sour taste; […] All sensory analyses are performed in a sensory panel room at 22-25° C. over three different sessions by a trained panel of 8 to 10 individuals. For recording the taste profiles, samples are prepared as indicated in the examples below. Taste profiles of samples are determined in a triangle test in three different sessions. Panellists refrain from eating or drinking for at least 1 hour prior to the session. At the start of the session and before each trial, the subject rinsed with water and expectorated. The participants receive a set of two blanks and one taste sample. Liquid samples are swirled around in the mouth briefly and expectorated. Solid samples are chewed for 20 seconds and then expectorated. […] Each sample with additive is compared to two reference samples without additives. Kokumi intensity is rated from 0-5 according to a scale from 0 to 5 (with 5 most intensive). The additive is added to a consumable and the sample is homogenised. The samples are presented to the sensory panel directly after homogenisation. The sensory panel included 6-8 trained individuals with exception of example 4, here the panel consists of 10 trained individuals. The compounds listed in the table below are dissolved in an aqueous solution (pH 6.5) of NaCl (30 mmol/L).

[4] = system: sensory panel; assay: Isointensity triangle test in sodium and potassium salt solution (30 mmol/L NaCl, 15 mmol/L KCl), Example 1b; conditions: NaCl 30 mmol/L + KCl 15 mmol/L, salt enhancer 10 mmol/L; without enhancer 40 mmol/L
Method: Unless otherwise indicated, all sensory tests are triangle tests and are performed according to the guidelines in “[…] von […]-und Bedarfsgegenständegesetz)”; L 00.90 7, Untersuchung von Lebensmitteln, Sensorische […] Deutschen Norm DIN ISO 4120, Ausgabe Januar 1995), as follows: For recording the taste profiles, samples are prepared as indicated in the examples below. Taste profiles of samples are determined in a triangle test in three different sessions. Panellists refrain from eating or drinking for at least 1 hour prior to the session. At the start of the session and before each trial, the subject rinsed with water and expectorated. The participants receive a set of two blanks and one taste sample. Liquid samples are swirled around in the mouth briefly and expectorated. Solid samples are chewed for 20 seconds and then expectorated. […] Each sample with additive is compared to two reference samples without additives. Kokumi intensity is rated from 0-5 according to a scale from 0 to 5 (with 5 most intensive). The additive is added to a consumable and the sample is homogenised. The samples are presented to the sensory panel directly after homogenisation. […] KCl is often used in small concentrations to reduce sodium without loss of salty taste. […] For the samples compared and the results see the table below.

[5] = system: sensory panel; assay: Sensory test in ketchup, Example 5; conditions: additive 500 ppm
Method: as §1
as §2, with “The sensory panel included 6-8 trained individuals with exception of example 4, here the panel consists of 10 trained individuals.” left out

Compound: N[C@@H](CCC(=O)N[C@@H](CS)C(=O)NCC(=O)O)C(=O)O [GSH reduced, glutathione]
- Kokumi Intensity (0-5) ([1]; chicken broth pH 6.5, additive 10 mmol/L): 3.5

Compound: N[C@@H](CCC(=O)O)C(=O)[O-].[Na+] [MSG, monosodium glutamate]
- Sensory results (compared to 1) ([1]; additive 2000 ppm): Higher umami intensity

Compound: [Cl-].[Na+] [NaCl, sodium chloride, reference compound]
- Sensory results (compared to 1) ([1]; additive 2000 ppm): More salty
- Sensory results (compared to 1) ([2]; additive 2000 ppm): More salty

Compound: CCOC(=O)[C@@H](N)CSC(CC(=O)O)C(=O)O (stereo partly drawn) [S-(α,β-dicarboxyethyl) cysteine ethyl ester]
- concentration of an isointense NaCl-solution [3]: 42 mmol/L

Compound: COC(=O)[C@@H](N)CSC(CC(=O)O)C(=O)O (stereo partly drawn) [S-(α,β-dicarboxyethyl) cysteine methyl ester]
- concentration of an isointense NaCl-solution [3]: 38 mmol/L

Compound: N[C@@H](CCC(=O)N[C@@H](CSC(CC(=O)O)C(=O)O)C(=O)NCC(=O)O)C(=O)O (stereo partly drawn) [S-(α,β-dicarboxyethyl) γ-L-glutamyl-L-cysteinyl-glycine]
- concentration of an isointense NaCl-solution [3]: 48 mmol/L
- concentration of an isointense NaCl-solution [4]: 57 mmol/L
- Kokumi Intensity (0-5) ([1]; chicken broth pH 6.5, additive 400 ppm): 3.5
- Sensory results compared to 2 ([2]; additive 1000 ppm): greater effect on saltiness than the addition of NaCl
- Sensory results (compared to 1) [5]: Slightly more salty

Compound: CCOC(=O)C(CSC(CC(=O)O)C(=O)O)NC(=O)CC[C@H](N)C(=O)O (stereo partly drawn) [S-(α,β-dicarboxyethyl) γ-L-glutamyl-cysteine ethyl ester]
- concentration of an isointense NaCl-solution [3]: 48 mmol/L

Compound: N[C@@H](CCC(=O)N[C@@H](CSC(CC(=O)O)C(=O)O)C(=O)O)C(=O)O (stereo partly drawn) [S-(α,β-dicarboxyethyl) γ-L-glutamyl-cysteine]
- concentration of an isointense NaCl-solution [3]: 60 mmol/L
- Sensory results compared to 2 ([2]; additive 1000 ppm): greater effect on saltiness than the addition of NaCl

Compound: N[C@@H](CSC(CC(=O)O)C(=O)O)C(=O)O (stereo partly drawn) [S-(α,β-dicarboxyethyl)-L-cysteine, S-(α,β-dicarboxyethyl) cysteine]
- concentration of an isointense NaCl-solution [3]: 40 mmol/L
- Sensory results (compared to 1) ([1]; additive 400 ppm): More salty
- Sensory results compared to 2 ([2]; additive 1000 ppm): Slightly more salty
- Sensory results (compared to 1) ([2]; additive 1000 ppm): More salty

Compound: N[C@@H](CCC(=O)N[C@@H](CSCCC(=O)O)C(=O)NCC(=O)O)C(=O)O [β-S-(carboxyethyl) γ-L-glutamyl-L-cysteinyl-glycine]
- concentration of an isointense NaCl-solution [3]: 38 mmol/L

Compound: N[C@@H](CCC(=O)N[C@@H](CSC(CCC(=O)O)C(=O)O)C(=O)NCC(=O)O)C(=O)O (stereo partly drawn) [β-S-(α,γ-dicarboxypropyl) γ-L-glutamyl-L-cysteinyl-glycine]
- concentration of an isointense NaCl-solution [3]: 48 mmol/L
